# According to PMC7400437, “Synthesis and Evaluation of the Antibacterial Activities of 13-Substituted Berberine Derivatives” (Antibiotics, 2020):
# Assays:
# S. enterica = experiment: MIC, antimicrobial activity assay; format: cell-based, Salmonella enterica (CIP 80.39); settings: Salmonella enterica; Table 4, Gram-negative
# B. cereus = experiment: MIC, antimicrobial activity assay; format: cell-based; settings: Bacillus cereus; Table 4, Gram-positive
# H. pylori [1] = experiment: MIC, antimicrobial activity assay; format: cell-based, Helicobacter pylori (ATCC 43504); settings: Helicobacter pylori; Table 4, Gram-negative; microaerobic
# H. pylori [2] = experiment: Bacterial membrane permeabilization assay (propidium iodide); format: cell-based, Helicobacter pylori; settings: for membrane permeabilization at 4-times MIC, H. pylori: 4-times their MIC; for maximal membrane permeabilization, H. pylori: 120 min exposure to 100 µM, CTAB 300 µM = 100%
# Procedure: (§1) Membrane permeabilization by berberine derivatives was evaluated using the cell-impermeable DNA/RNA probe propidium iodide as previously explained. Logarithmic growing bacterial suspensions were prepared from overnight bacterial suspension by 1 in 10 dilution. After 3 h incubation at 37 °C, 200 rpm, bacterial suspensions were centrifuged for 5 min at 3000 rpm. Cell pellets were then resuspended in sterile PBS at about 10^9 cells/mL. Propidium iodide (Sigma Aldrich) was then added to the suspension at a final concentration of 60 µM. 100 µL of this suspension were then transferred into 96-well black plates (Dominique Dutscher) and exposed to increasing concentrations of berberine’s derivative (from 0 to 100 µM, 1:2 dilution). […] All steps of the assay were performed in aerobic condition except for H. pylori which was done in microaerobic condition generated with GasPak unit (Sigma Aldrich). Bacteria were incubated at 37 °C and the kinetics of fluorescence variations (excitation at 530 nm and emission at 590 nm) were then recorded over time using a Synergy Mx microplate reader (Biotek). Cetyl trimethylammonium bromide (CTAB) at 300 µM was used as positive control giving 100% permeabilization. Results were expressed in % of permeabilization. All experiments were done in triplicate.
# V. alginolyticus [3] = experiment: as above; format: cell-based, Vibrio alginolyticus; settings: for membrane permeabilization at 4-times MIC, V. alginolyticus: 4-times their MIC; for maximal membrane permeabilization, V. alginolyticus: 120 min exposure to 100 µM, CTAB 300 µM = 100%
# Procedure: as §1
# C. rodentium = experiment: MIC, antimicrobial activity assay; format: cell-based, Citrobacter rodentium (ATCC 51116); settings: Citrobacter rodentium; Table 4, Gram-negative
# B. subtilis = experiment: Macromolecule synthesis inhibition assay by fluorescent microscopy (morphological changes); settings: 4 × MIC, 2 h, 37 °C; for Observed Morphology: DNA, B. subtilis: DAPI; for Known/Possible Target, B. subtilis: inferred from morphology
# K. pneumonia = experiment: MIC, antimicrobial activity assay; format: cell-based, Klebsiella pneumoniae (DSMZ 26371); settings: Klebsiella pneumoniae; Table 4, Gram-negative
# V. alginolyticus [4] = experiment: MIC, antimicrobial activity assay; format: cell-based, Vibrio alginolyticus (DSM 2171); settings: Vibrio alginolyticus; Table 4, Gram-negative
# [5] = tested on: P. aeruginosa (Quinolone-resistant); experiment: MIC, antimicrobial activity assay; format: cell-based; settings: Pseudomonas aeruginosa, read-out: MIC P. aeruginosa (Quinolone-resistant)
# A. gandavensis = experiment: MIC, antimicrobial activity assay; format: cell-based, Arthrobacter gandavensis (DSM 2447); settings: Arthrobacter gandavensis; Table 4, Gram-positive
# [6] = tested on: B. subtilis (Nisin-resistant); experiment: MIC, antimicrobial activity assay; format: cell-based, nisin-resistant B. subtilis (DSMZ 347); settings: Bacillus subtilis, read-out: MIC B. subtilis (Nisin-resistant)
# C. farmer = experiment: MIC, antimicrobial activity assay; format: cell-based, Citrobacter farmeri (ATCC 51633); settings: Citrobacter farmeri; Table 4, Gram-negative
# [7] = tested on: bacterial DNA extracted from V. alginolyticus; experiment: DNA fragmentation assay; settings: 6 h at 37 °C, 4-times their MIC
# [8] = tested on: bacterial DNA extracted from B. subtilis; experiment: DNA fragmentation assay; settings: 6 h at 37 °C, 4-times their MIC
# [9] = tested on: BEAS (human airway epithelial cells); experiment: Cytotoxic assay on human cells (resazurin); format: cell-based; settings: Epithelial cell, 48 h, means +/−SD, read-out: Inhibitory Concentration 50 (IC50) on cell viability, BEAS
# Procedure, shortened: (§2)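 Cells grown to confluence (48–72 h) were exposed for 48 h at 37 °C to 1:2 serial dilutions from 0 to 50 µM, with 0.5% DMSO as negative control. Resazurin 1:10 in PBS++ was added for 4 h, and fluorescence was read at 530/590 nm and normalized to DMSO wells. IC50 is the concentration giving 50% viability reduction.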
# [10] = tested on: Caco2 (human intestinal epithelial cells); experiment: Cytotoxic assay on human cells (resazurin); format: cell-based; settings: for IC50: Homo sapiens, Caco-2, 48 h, read-out: Inhibitory Concentration 50 (IC50) on cell viability, Caco2; for therapeutic index Caco2: IC50 on Caco2 divided by MIC on S. aureus
# [11] = tested on: HepG2 (human liver cells); experiment: Cytotoxic assay on human cells (resazurin); format: cell-based; settings: HepG2, 48 h, read-out: Inhibitory Concentration 50 (IC50) on cell viability, HEPG2
# Procedure, shortened: as §2
structure (smiles),measurement,setting,value
"COc1cc(C(=O)Cc2c3[n+](cc4c(OC)c(OC)ccc24)CCc2cc4c(cc2-3)OCO4)cc(OC)c1OC(=O)c1ccccc1 [Compound 16, 4-[2-(Berberin-13-yl)acetyl]-2,6-dimethoxyphenyl Benzoate]",MIC,S. enterica,> 100 µM
same,MIC,B. cereus,12.5 µM
same,MIC,H. pylori [1],6.25 µM
same,"membrane permeabilization at 4-times MIC, H. pylori",H. pylori [2],low to no membrane permeabilization
same,"maximal membrane permeabilization, H. pylori",H. pylori [2],50–60%
same,"membrane permeabilization at 4-times MIC, V. alginolyticus",V. alginolyticus [3],20–40%
same,"maximal membrane permeabilization, V. alginolyticus",V. alginolyticus [3],80–100%
same,MIC,C. rodentium,> 100 µM
same,"Observed Morphology: cell elongation/enlargement, B. subtilis",B. subtilis,1.5–6 times compared to control
same,"Observed Morphology: cells connected, B. subtilis",B. subtilis,2–4 cells connected
same,"Observed Morphology: DNA, B. subtilis",B. subtilis,2 morphologies of DNA: • - 2 condensed DNA in each cell • - Decondensed DNA spanning the cell
same,"Known/Possible Target, B. subtilis",B. subtilis,Cell wall biosynthesis
same,MIC,K. pneumonia,> 100 µM
same,MIC,V. alginolyticus [4],3.12 µM
same,MIC,[5],> 100 µM
same,MIC,A. gandavensis,100 µM
same,MIC,[6],12.5 µM
same,MIC,C. farmer,> 100 µM
same,"DNA fragmentation, V. alginolyticus DNA",[7],did not caused DNA fragmentation
same,"DNA fragmentation, B. subtilis DNA",[8],did not caused DNA fragmentation
same,IC50,[9],> 50 µM
same,IC50,[10],> 50 µM
same,therapeutic index Caco2,[10],10.36
same,IC50,[11],> 50 µM
"COc1ccc(C(=O)/C=C/c2ccc(Cc3c4[n+](cc5c(OC)c(OC)ccc35)CCc3cc5c(cc3-4)OCO5)cc2)c(O)c1 [Compound 25, (2E)-3-{4-[(Berberin-13-yl)methyl]phenyl}-1-(2-hydroxy-4-methoxyphenyl)prop-2-en-1-one]",MIC,S. enterica,> 100 µM
same,MIC,B. cereus,6.25 µM
same,MIC,H. pylori [1],3.12 µM
same,"membrane permeabilization at 4-times MIC, H. pylori",H. pylori [2],low to no membrane permeabilization
same,"maximal membrane permeabilization, H. pylori",H. pylori [2],50–60%
same,"membrane permeabilization at 4-times MIC, V. alginolyticus",V. alginolyticus [3],20–40%
same,"maximal membrane permeabilization, V. alginolyticus",V. alginolyticus [3],80–100%
same,MIC,C. rodentium,> 100 µM
same,"Observed Morphology: cell elongation/enlargement, B. subtilis",B. subtilis,1–2.5 times compared to control
same,"Observed Morphology: cells connected, B. subtilis",B. subtilis,2–8 cells connected
same,"Observed Morphology: DNA, B. subtilis",B. subtilis,DNA condensed and cross the cells with dot like shape
same,"Observed Morphology: cell membrane, B. subtilis",B. subtilis; FM4-64FX,Cell membrane thickening
same,"Known/Possible Target, B. subtilis",B. subtilis,RNA biosynthesis
same,MIC,K. pneumonia,> 100 µM
same,MIC,V. alginolyticus [4],3.12 µM
same,MIC,[5],> 100 µM
same,MIC,A. gandavensis,1.5 µM
same,MIC,[6],6.25 µM
same,MIC,C. farmer,> 100 µM
same,"DNA fragmentation, V. alginolyticus DNA",[7],did not caused DNA fragmentation
same,"DNA fragmentation, B. subtilis DNA",[8],did not caused DNA fragmentation
same,IC50,[9],8.87 ± 1.5 µM
same,IC50,[10],10.5 ± 0.7 µM
same,therapeutic index Caco2,[10],3.37
same,IC50,[11],> 50 µM
